# From patent US8835484B2, “Naphthocyanines for use as contrast agents” (Alamedics GmbH & Co. KG, priority 2010, dated 2014)
# Key:
# [1] = tested on: lens capsule; experiment: Dye tests on porcine eyes (lens capsule staining); parameters: key: +++: visually assessed very strong coloration; ++: good coloration; +: satisfactory coloration; −: weak or absent coloration; conditions: incubated, rinsed after one minute
# Experimental: For the dye test, in each case 5 mg dye was dissolved in 500 μL ethanol and diluted to 2 mL with BSS Plus solution as the stock solution, and then correspondingly further diluted. As an alternative, one can prepare stock solutions of the dye by dissolving, for example, 5 mg dye in 1 mL distilled water, adding 7 mL BSS solution and then combining with 1 mL NaCl solution having an osmolality of 620 (approximately 2%) in order to restore the original osmolality of the BSS solution (308). This stock solution can be correspondingly further diluted with BSS solution as required. Enucleated porcine eyes were used having a post mortem time period of a few hours. To dye the lens capsule, the cornea was first removed. Thereafter, the iris was resected and the capsular support was severed. The lens with intact lens capsule was removed and placed in a bowl filled with BSS. The lenses were thereafter incubated with the dyes according to the invention at various concentrations and then rinsed after one minute. The dye pattern was photographically documented, whereby the coloration was assessed without additional illumination, and fluorescence was assessed with illumination (Xenon lamp, halogen lamp with typical endoillumination source and fiber optics). The lens capsule is a very good model for dyeing due to the fact that it is a basal membrane, as is the ILM of the retina. Both structures are important target structures in eye surgery.
# [2] = Fluorescence quantum yield; assay type: physicochemical; conditions: CHCl3; Reference: S-13 with Φ=1.00
# From the text: IR spectra: Perkin Elmer Spectrum BX II, using a diamond anvil cell; UV/Vis spectra: Varian Cary 5000 and Bruins Omega 20; fluorescence spectra: Varian Eclispe; NMR spectroscopy: Varian Vnmrs 600 (600 MHz, 400 MHz, 200 MHz); mass spectrometry: Thermo Finnigan LQT FT.
# [3] = Solid cyanine dye stability comparison; assay type: physicochemical; conditions: storage
# From the text: Decomposition of the solid dye results in a red coloration of the solid and the solution. Carboxylic acid esters, especially methyl ester, are particularly sensitive in addition to the bromides.
# [4] = Solid cyanine dye stability comparison; assay type: physicochemical; conditions: after work-up, forming a yellow color
# [5] = tested on: internal limiting membrane (ILM); conditions: literature experiments; cited from earlier work
# [6] = tested on: retina; conditions: cited from earlier work
SMILES,Fluorescence quantum yield [2],Stability [3],melting point,decomposition of the dye after preparation [4],coloration of lens capsule ([1]; dye concentration 0.5%),coloration of lens capsule ([1]; dye concentration 1.0),staining of the ILM [5],toxic effect on the retina [6]
"CC1(C)C(/C=C/C=C2\N(CCC(=O)O)c3ccc4c(S(=O)(=O)O)cccc4c3C2(C)C)=[N+](CCC(=O)O)c2ccc3c(S(=O)(=O)O)cccc3c21.[Br-] [Dye 6b, 3,3′-Di-(2-carboxyethyl)-1,1,1′,1′-tetramethyl-1H-disulfobenzo[e]indocarbocyanine bromide]",0.21,Decomposition after a few days,> 180 °C (dec.),,+++,+++,,
"CCOC(=O)CCN1/C(=C\C=C\C2=[N+](CCC(=O)OCC)c3ccc4c(S(=O)(=O)O)cccc4c3C2(C)C)C(C)(C)c2c1ccc1c(S(=O)(=O)O)cccc21.[Br-] [Dye 6e, 3,3′-Di-(2-ethoxycarbonylethyl)-1,1,1′,1′-tetramethyl-1H-disulfobenzo[e]indocarbocyanine bromide]",0.18,Decomposition after 2 months,> 150 °C (dec.),,decomposed,decomposed,,
"CCCCCN1/C(=C\C=C\C2=[N+](CCCCC)c3ccc4ccccc4c3C2(C)C)C(C)(C)c2c1ccc1ccccc21.[Br-] [Dye 6j, 3,3′-Di-(pentyl)-1,1,1′,1′-tetramethyl-1H-dibenzo[e]indocarbocyanine bromide]",0.20,,> 150 °C (dec.),,,,,
"CC1(C)C(/C=C/C=C/C=C/C=C2\N(CCCCS(=O)(=O)O)c3ccc4ccccc4c3C2(C)C)=[N+](CCCCS(=O)(=O)[O-])c2ccc3ccccc3c21 [ICG, indocyanine green]",,,,,,,Selective staining,toxic effect on the retina which is difficult to control

# Further lines, with some results ahead:
Fluorescence quantum yield [2],Stability [3],melting point,decomposition of the dye after preparation [4],SMILES,coloration of lens capsule ([1]; dye concentration 0.5%),coloration of lens capsule ([1]; dye concentration 1.0),staining of the ILM [5],toxic effect on the retina [6]
0.31,No decomposition after 3 months,> 150 °C (dec.),,"CC1(C)C(/C=C/C=C2\N(CCCCCCCCCCC(=O)O)c3ccc4c(S(=O)(=O)O)cccc4c3C2(C)C)=[N+](CCCCCCCCCCC(=O)O)c2ccc3c(S(=O)(=O)O)cccc3c21.[Br-] [Dye 6c, 3,3′-Di-(10-carboxydecyl)-1,1,1′,1′-tetramethyl-1H-disulfobenzo[e]indocarbocyanine bromide]",++,++,,
0.25,Decomposition after 1 month,> 150 °C (dec.),,"COC(=O)CCCCCCCCCCN1/C(=C\C=C\C2=[N+](CCCCCCCCCCC(=O)OC)c3ccc4c(S(=O)(=O)O)cccc4c3C2(C)C)C(C)(C)c2c1ccc1c(S(=O)(=O)O)cccc21.[Br-] [Dye 6d, 3,3′-Di-(10-methoxycarbonyldecyl)-1,1,1′,1′-tetramethyl-1H-disulfobenzo[e]indocarbocyanine bromide]",decomposed,decomposed,,
0.11,Decomposition after 2 months,> 150 °C (dec.),decomposes as soon as after one day,"CCOC(=O)CCCCN1/C(=C\C=C\C2=[N+](CCCCC(=O)OCC)c3ccc4c(S(=O)(=O)O)cccc4c3C2(C)C)C(C)(C)c2c1ccc1c(S(=O)(=O)O)cccc21.[Br-] [Dye 6f, 3,3′-Di-(4-ethoxycarbonylbutyl)-1,1,1′,1′-tetramethyl-1H-disulfobenzo[e]indocarbocyanine bromide]",decomposed,decomposed,,
0.22,No decomposition after 3 months,> 150 °C (dec.),,"CCOC(=O)CCCCCN1/C(=C\C=C\C2=[N+](CCCCCC(=O)OCC)c3ccc4c(S(=O)(=O)O)cccc4c3C2(C)C)C(C)(C)c2c1ccc1c(S(=O)(=O)O)cccc21.[Br-] [Dye 6g, 3,3′-Di-(5-ethoxycarbonylpentyl)-1,1,1′,1′-tetramethyl-1H-disulfobenzo[e]indocarbocyanine bromide]",++,++,,
